Experimental data taken from patent US12564638B2 (SHANGHAITECH UNIVERSITY, priority 2019, dated 2026).

Experiments:
[1] = test system: HCC827 cells (EGFR Exon19 del, non-small cell lung cancer cells); assay: Cell viability assay (WST/CCK8), HCC827 cells; format: cell-based; settings: Homo sapiens, HCC827, 72 h, HCC827 (Exon19 Del), 72 hours, WST (CCK8); read-out: IC50 (half inhibitory concentration)
How it was run: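 Plated 3 000 cells/well in complete RPMI1640 the day before dosing; controls were DMSO (negative) and EGFR TKIs (positive).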

[2] = test system: PC9 cells (EGFR Exon 19 del, non-small cell lung cancer cells); assay: Cell viability assay (WST/CCK8), PC9 cells; format: cell-based; settings: Homo sapiens, PC-9; PC9 (Exon19 Del), 72 hours, WST (CCK8); read-out: IC50 (half inhibitory concentration)
Text: The cell lines with abnormal EGFR expression used are as follows: • HCC827 cells (EGFR Exon19 del, non-small cell lung cancer cells); • PC9 cells (EGFR Exon 19 del, non-small cell lung cancer cells); • PC9BracA1 (EGFR Exon 19 del+T790M, non-small cell lung cancer cells) • H1975 (EGFR Exon T790M+L858R mutation, non-small cell lung cancer cell line) • BT474 cells (HER2 positive breast cancer cells)
All of the half inhibitory concentrations (IC50) of these compounds of the present invention were determined with WST reagent from Fuyuan Biotec Company. The specific experiment procedures are as follows: Cancer cells were planted in 96-well-plate at the density of 3 000 cells per well with 100 μL RPMI1640 completed culture medium. In the next day, compounds with indicated concentrations were added to the cells, DMSO was used as the negative control and the EGFR TKIs were used to treat cells as the positive groups. After 72 hours drug treatment, cell viability was measured by using the WST reagent following the instructions.
The cells were treated with the gradient concentration of these compounds (the maximum concentration: 10 μM; 3-fold dilution ratio, 10 concentration gradients) for 72 hours and then incubated with the WST (CCK8) reagent to determine the cell viability.

Compound | IC50 [1] [nM] | IC50 [2] [nM]
COc1cc2ncnc(Nc3ccc(F)c(Cl)c3)c2cc1NC(=O)/C=C/CN1CCN(C(=O)CCCCSc2cccc3c2C(=O)N(C2CCC(=O)NC2=O)C3=O)CC1 (centres unmarked) [SIAIS249037, (E)-N-(4-((3-chloro-4-fluorophenyl)amino)-7-methoxyquinazolin-6-yl)-4-(4-(5-((2-(2,6-dioxopiperidin-3-yl)-1,3-dioxoisoindolin-4-yl)thio)pentanoyl)piperazin-1-yl)but-2-enamide] | 6.6 | 28.7
COc1cc2ncnc(Nc3ccc(F)c(Cl)c3)c2cc1NC(=O)/C=C/CN1CCN(C(=O)CCCCCSc2cccc3c2C(=O)N(C2CCC(=O)NC2=O)C3=O)CC1 (centres unmarked) [SIAIS249038, (E)-N-(4-((3-chloro-4-fluorophenyl)amino)-7-methoxyquinazolin-6-yl)-4-(4-(6-((2-(2,6-dioxopiperidin-3-yl)-1,3-dioxoisoindolin-4-yl)thio)hexanoyl)piperazin-1-yl)but-2-enamide] | 4.7 | 22.9
COc1cc2ncnc(Nc3ccc(F)c(Cl)c3)c2cc1NC(=O)/C=C/CN1CCN(C(=O)CCCCCCSc2cccc3c2C(=O)N(C2CCC(=O)NC2=O)C3=O)CC1 (centres unmarked) [SIAIS249039, (E)-N-(4-((3-chloro-4-fluorophenyl)amino)-7-methoxyquinazolin-6-yl)-4-(4-(7-((2-(2,6-dioxopiperidin-3-yl)-1,3-dioxoisoindolin-4-yl)thio)heptanoyl)piperazin-1-yl)but-2-enamide] | 5.2 | 18.7
COc1cc2ncnc(Nc3ccc(F)c(Cl)c3)c2cc1NC(=O)/C=C/CN1CCN(C(=O)CCC(=O)N[C@H](C(=O)N2C[C@H](O)C[C@H]2C(=O)NCc2ccc(-c3scnc3C)cc2)C(C)(C)C)CC1 [SIAIS249041, (2S,4R)-1-((S)-2-(4-(4-((E)-4-((4-((3-chloro-4-fluorophenyl)amino)-7-methoxyquinazolin-6-yl)amino)-4-oxobut-2-en-1-yl)piperazin-1-yl)-4-oxobutanamido)-3,3-dimethylbutanoyl)-4-hydroxy-N-(4-(4-methylthiazol-5-yl)benzyl)pyrrolidine-2-carboxamide] | 38.3 | 99
COc1cc2ncnc(Nc3ccc(F)c(Cl)c3)c2cc1NC(=O)/C=C/CN1CCN(C(=O)CCCCCCC(=O)N[C@H](C(=O)N2C[C@H](O)C[C@H]2C(=O)NCc2ccc(-c3scnc3C)cc2)C(C)(C)C)CC1 [SIAIS249043, (2S,4R)-1-((S)-2-(8-(4-((E)-4-((4-((3-chloro-4-fluorophenyl)amino)-7-methoxyquinazolin-6-yl)amino)-4-oxobut-2-en-1-yl)piperazin-1-yl)-8-oxooctanamido)-3,3-dimethylbutanoyl)-4-hydroxy-N-(4-(4-methylthiazol-5-yl)benzyl)pyrrolidine-2-carboxamide] | 19.3 | 70.6
COc1cc2ncnc(Nc3ccc(F)c(Cl)c3)c2cc1NC(=O)/C=C/CN1CCN(C(=O)CCOCCOCCC(=O)N[C@H](C(=O)N2C[C@H](O)C[C@H]2C(=O)NCc2ccc(-c3scnc3C)cc2)C(C)(C)C)CC1 [SIAIS249045, (2S,4R)-1-((S)-2-(3-(2-(3-(4-((E)-4-((4-((3-chloro-4-fluorophenyl)amino)-7-methoxyquinazolin-6-yl)amino)-4-oxobut-2-en-1-yl)piperazin-1-yl)-3-oxopropoxy)ethoxy)propanamido)-3,3-dimethylbutanoyl)-4-hydroxy-N-(4-(4-methylthiazol-5-yl)benzyl)pyrrolidine-2-carboxamide] | 41.9 | 691
COc1cc2ncnc(Nc3ccc(F)c(Cl)c3)c2cc1NC(=O)/C=C/CN1CCN(C(=O)CCOCCNc2cccc3c2C(=O)N(C2CCC(=O)NC2=O)C3=O)CC1 (centres unmarked) [SIAIS249046, (E)-N-(4-((3-chloro-4-fluorophenyl)amino)-7-methoxyquinazolin-6-yl)-4-(4-(3-(2-((2-(2,6-dioxopiperidin-3-yl)-1,3-dioxoisoindolin-4-yl)amino)ethoxy)propanoyl)piperazin-1-yl)but-2-enamide] | 3.4 | 57
COc1cc2ncnc(Nc3ccc(F)c(Cl)c3)c2cc1NC(=O)/C=C/CN1CCN(C(=O)CCCCNc2cccc3c2C(=O)N(C2CCC(=O)NC2=O)C3=O)CC1 (centres unmarked) [SIAIS249048, (E)-N-(4-((3-chloro-4-fluorophenyl)amino)-7-methoxyquinazolin-6-yl)-4-(4-(5-((2-(2,6-dioxopiperidin-3-yl)-1,3-dioxoisoindolin-4-yl)amino)pentanoyl)piperazin-1-yl)but-2-enamide] | 3.2 | 10.3
COc1cc2ncnc(Nc3ccc(F)c(Cl)c3)c2cc1NC(=O)/C=C/CN1CCN(C(=O)CCCCCNc2cccc3c2C(=O)N(C2CCC(=O)NC2=O)C3=O)CC1 (centres unmarked) [SIAIS249049, (E)-N-(4-((3-chloro-4-fluorophenyl)amino)-7-methoxyquinazolin-6-yl)-4-(4-(6-((2-(2,6-dioxopiperidin-3-yl)-1,3-dioxoisoindolin-4-yl)amino)hexanoyl)piperazin-1-yl)but-2-enamide] | 4.6 | 16
COc1cc2ncnc(Nc3ccc(F)c(Cl)c3)c2cc1NC(=O)/C=C/CN1CCN(C(=O)CCCNc2cccc3c2C(=O)N(C2CCC(=O)NC2=O)C3=O)CC1 (centres unmarked) [SIAIS249062, (E)-N-(4-((3-chloro-4-fluorophenyl)amino)-7-methoxyquinazolin-6-yl)-4-(4-(4-((2-(2,6-dioxopiperidin-3-yl)-1,3-dioxoisoindolin-4-yl)amino)butanoyl)piperazin-1-yl)but-2-enamide] | 3.7 | 10
COc1cc2ncnc(Nc3ccc(F)c(Cl)c3)c2cc1NC(=O)/C=C/CN1CCC(NC(=O)CCOCCOCCNc2cccc3c2C(=O)N(C2CCC(=O)NC2=O)C3=O)CC1 (centres unmarked) [SIAIS249086, (E)-N-(4-((3-chloro-4-fluorophenyl)amino)-7-methoxyquinazolin-6-yl)-4-(4-(3-(2-(2-((2-(2,6-dioxopiperidin-3-yl)-1,3-dioxoisoindolin-4-yl)amino)ethoxy)ethoxy)propanamido)piperidin-1-yl)but-2-enamide] | 17 | 34.2

Continued, values first:

IC50 [1] [nM] | IC50 [2] [nM] | Compound
7.3 | 4 | COc1cc2ncnc(Nc3ccc(F)c(Cl)c3)c2cc1NC(=O)/C=C/CN1CCN(C(=O)CNc2cccc3c2CN(C2CCC(=O)NC2=O)C3=O)CC1 (centres unmarked) [SIAIS249056, (E)-N-(4-((3-chloro-4-fluorophenyl)amino)-7-methoxyquinazolin-6-yl)-4-(4-(2-((2-(2,6-dioxopiperidin-3-yl)-1-oxoisoindolin-4-yl)amino)acetyl)piperazin-1-yl)but-2-enamide]
11.5 | 7.8 | COc1cc2ncnc(Nc3ccc(F)c(Cl)c3)c2cc1NC(=O)/C=C/CN1CCN(C(=O)CCCNc2cccc3c2CN(C2CCC(=O)NC2=O)C3=O)CC1 (centres unmarked) [SIAIS249057, (E)-N-(4-((3-chloro-4-fluorophenyl)amino)-7-methoxyquinazolin-6-yl)-4-(4-(4-((2-(2,6-dioxopiperidin-3-yl)-1-oxoisoindolin-4-yl)amino)butanoyl)piperazin-1-yl)but-2-enamide]
5.5 | 9.9 | COc1cc2ncnc(Nc3ccc(F)c(Cl)c3)c2cc1NC(=O)/C=C/CN1CCN(C(=O)CCCCNc2cccc3c2CN(C2CCC(=O)NC2=O)C3=O)CC1 (centres unmarked) [SIAIS249058, (E)-N-(4-((3-chloro-4-fluorophenyl)amino)-7-methoxyquinazolin-6-yl)-4-(4-(5-((2-(2,6-dioxopiperidin-3-yl)-1-oxoisoindolin-4-yl)amino)pentanoyl)piperazin-1-yl)but-2-enamide]
11.1 | 1.2 | COc1cc2ncnc(Nc3ccc(F)c(Cl)c3)c2cc1NC(=O)/C=C/CN1CCN(C(=O)CCCCCNc2cccc3c2CN(C2CCC(=O)NC2=O)C3=O)CC1 (centres unmarked) [SIAIS249059, (E)-N-(4-((3-chloro-4-fluorophenyl)amino)-7-methoxyquinazolin-6-yl)-4-(4-(6-((2-(2,6-dioxopiperidin-3-yl)-1-oxoisoindolin-4-yl)amino)hexanoyl)piperazin-1-yl)but-2-enamide]
11.5 | 16 | COc1cc2ncnc(Nc3ccc(F)c(Cl)c3)c2cc1NC(=O)/C=C/CN1CCN(C(=O)CCCCCCNc2cccc3c2CN(C2CCC(=O)NC2=O)C3=O)CC1 (centres unmarked) [SIAIS249060, (E)-N-(4-((3-chloro-4-fluorophenyl)amino)-7-methoxyquinazolin-6-yl)-4-(4-(7-((2-(2,6-dioxopiperidin-3-yl)-1-oxoisoindolin-4-yl)amino)heptanoyl)piperazin-1-yl)but-2-enamide]
